18 molecules from ChEMBL document CHEMBL3991601, “The target landscape of clinical kinase drugs” (Science, 2017) can be followed below.

In test [1] the target is Interleukin-1 receptor-associated kinase 1 (Homo sapiens, UniProt P51617).
Test [2] deals with Serine/threonine-protein kinase 10 (Homo sapiens, UniProt O94804).
The target in test [3] is T1, Structural maintenance of chromosomes protein 1A (Homo sapiens, UniProt Q14683).
T1 sequence (Q14683 whole entry): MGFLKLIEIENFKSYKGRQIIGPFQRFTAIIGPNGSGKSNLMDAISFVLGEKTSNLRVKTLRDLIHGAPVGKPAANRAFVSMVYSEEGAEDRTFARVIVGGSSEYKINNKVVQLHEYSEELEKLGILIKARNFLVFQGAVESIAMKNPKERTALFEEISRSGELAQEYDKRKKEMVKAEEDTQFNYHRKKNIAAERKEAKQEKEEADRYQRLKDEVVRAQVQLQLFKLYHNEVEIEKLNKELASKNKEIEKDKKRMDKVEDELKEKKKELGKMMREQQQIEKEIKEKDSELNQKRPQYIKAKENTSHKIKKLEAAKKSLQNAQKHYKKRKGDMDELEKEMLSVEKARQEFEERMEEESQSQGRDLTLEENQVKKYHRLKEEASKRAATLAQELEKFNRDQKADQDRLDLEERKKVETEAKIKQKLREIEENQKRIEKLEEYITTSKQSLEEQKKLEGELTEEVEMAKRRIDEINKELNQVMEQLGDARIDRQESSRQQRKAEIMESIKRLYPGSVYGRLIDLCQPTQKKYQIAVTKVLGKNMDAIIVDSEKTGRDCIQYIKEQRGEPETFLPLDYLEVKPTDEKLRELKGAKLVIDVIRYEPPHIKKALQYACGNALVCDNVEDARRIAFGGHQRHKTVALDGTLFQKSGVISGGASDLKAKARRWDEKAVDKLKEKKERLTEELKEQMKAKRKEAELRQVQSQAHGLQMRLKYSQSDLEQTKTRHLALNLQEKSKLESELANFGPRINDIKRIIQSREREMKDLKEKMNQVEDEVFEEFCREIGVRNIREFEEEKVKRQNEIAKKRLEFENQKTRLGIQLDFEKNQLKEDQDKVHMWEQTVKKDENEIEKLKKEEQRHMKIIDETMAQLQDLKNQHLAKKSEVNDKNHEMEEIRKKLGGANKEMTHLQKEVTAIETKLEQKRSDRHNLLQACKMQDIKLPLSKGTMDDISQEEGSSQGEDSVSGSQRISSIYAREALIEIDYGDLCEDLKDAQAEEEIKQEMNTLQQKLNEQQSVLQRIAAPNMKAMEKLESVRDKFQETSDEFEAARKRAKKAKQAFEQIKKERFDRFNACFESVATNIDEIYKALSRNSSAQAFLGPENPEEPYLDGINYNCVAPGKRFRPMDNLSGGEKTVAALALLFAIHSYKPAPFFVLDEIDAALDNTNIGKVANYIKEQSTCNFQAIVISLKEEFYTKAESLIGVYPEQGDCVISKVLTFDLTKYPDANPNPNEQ

Test [4] has as its target T2, Serine/threonine-protein kinase 4 (Homo sapiens, UniProt Q13043).
T2 sequence (Q13043 whole entry): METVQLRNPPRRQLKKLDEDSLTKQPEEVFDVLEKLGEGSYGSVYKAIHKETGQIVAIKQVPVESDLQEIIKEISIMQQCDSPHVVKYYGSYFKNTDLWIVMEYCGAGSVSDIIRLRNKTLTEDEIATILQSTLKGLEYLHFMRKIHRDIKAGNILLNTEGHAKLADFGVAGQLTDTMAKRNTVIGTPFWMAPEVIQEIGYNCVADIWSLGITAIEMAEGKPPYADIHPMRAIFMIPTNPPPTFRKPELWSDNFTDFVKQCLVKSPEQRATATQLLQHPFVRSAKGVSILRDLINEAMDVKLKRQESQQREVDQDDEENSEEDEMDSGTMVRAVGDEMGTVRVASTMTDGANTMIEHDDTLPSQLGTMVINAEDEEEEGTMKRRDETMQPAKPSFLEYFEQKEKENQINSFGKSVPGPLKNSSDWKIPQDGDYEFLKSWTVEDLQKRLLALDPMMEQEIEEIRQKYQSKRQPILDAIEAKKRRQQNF

Test [5] addresses T3, Serine/threonine-protein kinase ULK1 (Homo sapiens, UniProt O75385).
T3 sequence (O75385 whole entry): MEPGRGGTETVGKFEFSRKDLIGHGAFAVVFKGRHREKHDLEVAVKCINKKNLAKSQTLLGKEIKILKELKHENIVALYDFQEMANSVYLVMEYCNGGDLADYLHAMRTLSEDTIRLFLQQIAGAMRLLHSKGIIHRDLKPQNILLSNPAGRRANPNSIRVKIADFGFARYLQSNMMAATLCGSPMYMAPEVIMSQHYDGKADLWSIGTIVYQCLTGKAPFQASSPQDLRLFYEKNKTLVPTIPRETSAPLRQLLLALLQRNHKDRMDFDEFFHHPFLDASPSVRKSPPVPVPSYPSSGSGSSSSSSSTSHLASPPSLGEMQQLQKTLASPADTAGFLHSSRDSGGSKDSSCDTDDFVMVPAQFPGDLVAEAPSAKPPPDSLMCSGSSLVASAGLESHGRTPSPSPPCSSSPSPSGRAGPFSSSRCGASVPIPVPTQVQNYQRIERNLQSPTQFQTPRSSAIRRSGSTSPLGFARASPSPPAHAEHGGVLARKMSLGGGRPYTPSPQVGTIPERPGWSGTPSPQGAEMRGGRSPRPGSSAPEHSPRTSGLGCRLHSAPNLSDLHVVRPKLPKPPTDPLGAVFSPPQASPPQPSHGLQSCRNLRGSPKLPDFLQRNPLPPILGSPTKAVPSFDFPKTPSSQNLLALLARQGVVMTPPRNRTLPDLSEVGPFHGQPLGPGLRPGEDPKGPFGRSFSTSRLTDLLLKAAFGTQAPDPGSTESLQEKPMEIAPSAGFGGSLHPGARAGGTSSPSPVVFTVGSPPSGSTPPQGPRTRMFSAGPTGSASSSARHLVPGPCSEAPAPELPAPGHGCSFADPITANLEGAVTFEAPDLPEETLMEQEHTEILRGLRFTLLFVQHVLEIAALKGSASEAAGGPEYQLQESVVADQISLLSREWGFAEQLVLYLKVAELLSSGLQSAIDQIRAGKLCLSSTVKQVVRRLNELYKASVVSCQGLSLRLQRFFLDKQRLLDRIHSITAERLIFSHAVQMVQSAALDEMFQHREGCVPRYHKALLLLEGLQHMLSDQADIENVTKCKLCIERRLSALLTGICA

The source made the active and inactive calls. Rule as the data show it, for most assays here: actives have a measured Kd and inactives only a lower limit. Some results are limits rather than exact numbers.
Also: in the data inactive means no Kd found up to 30 µM.

Interleukin-1 receptor-associated kinase 1, sequence (P51617 whole entry): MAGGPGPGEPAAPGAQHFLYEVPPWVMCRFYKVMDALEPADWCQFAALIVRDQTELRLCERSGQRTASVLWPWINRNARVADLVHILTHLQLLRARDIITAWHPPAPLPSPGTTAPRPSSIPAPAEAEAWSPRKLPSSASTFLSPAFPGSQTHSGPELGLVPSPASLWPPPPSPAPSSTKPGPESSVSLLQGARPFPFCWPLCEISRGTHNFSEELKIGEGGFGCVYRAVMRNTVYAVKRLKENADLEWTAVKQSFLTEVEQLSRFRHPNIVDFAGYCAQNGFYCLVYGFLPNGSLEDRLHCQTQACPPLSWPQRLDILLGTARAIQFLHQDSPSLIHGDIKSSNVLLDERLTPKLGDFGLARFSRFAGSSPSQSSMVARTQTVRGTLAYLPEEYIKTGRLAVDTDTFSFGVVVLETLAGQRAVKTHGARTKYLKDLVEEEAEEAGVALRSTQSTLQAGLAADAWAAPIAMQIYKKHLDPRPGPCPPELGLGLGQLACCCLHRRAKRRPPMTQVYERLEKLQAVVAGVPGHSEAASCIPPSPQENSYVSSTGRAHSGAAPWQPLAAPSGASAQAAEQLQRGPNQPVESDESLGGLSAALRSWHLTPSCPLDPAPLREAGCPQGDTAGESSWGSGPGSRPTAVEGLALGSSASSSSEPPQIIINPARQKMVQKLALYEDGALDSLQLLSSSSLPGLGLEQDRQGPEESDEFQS
Serine/threonine-protein kinase 10, sequence (O94804 whole entry): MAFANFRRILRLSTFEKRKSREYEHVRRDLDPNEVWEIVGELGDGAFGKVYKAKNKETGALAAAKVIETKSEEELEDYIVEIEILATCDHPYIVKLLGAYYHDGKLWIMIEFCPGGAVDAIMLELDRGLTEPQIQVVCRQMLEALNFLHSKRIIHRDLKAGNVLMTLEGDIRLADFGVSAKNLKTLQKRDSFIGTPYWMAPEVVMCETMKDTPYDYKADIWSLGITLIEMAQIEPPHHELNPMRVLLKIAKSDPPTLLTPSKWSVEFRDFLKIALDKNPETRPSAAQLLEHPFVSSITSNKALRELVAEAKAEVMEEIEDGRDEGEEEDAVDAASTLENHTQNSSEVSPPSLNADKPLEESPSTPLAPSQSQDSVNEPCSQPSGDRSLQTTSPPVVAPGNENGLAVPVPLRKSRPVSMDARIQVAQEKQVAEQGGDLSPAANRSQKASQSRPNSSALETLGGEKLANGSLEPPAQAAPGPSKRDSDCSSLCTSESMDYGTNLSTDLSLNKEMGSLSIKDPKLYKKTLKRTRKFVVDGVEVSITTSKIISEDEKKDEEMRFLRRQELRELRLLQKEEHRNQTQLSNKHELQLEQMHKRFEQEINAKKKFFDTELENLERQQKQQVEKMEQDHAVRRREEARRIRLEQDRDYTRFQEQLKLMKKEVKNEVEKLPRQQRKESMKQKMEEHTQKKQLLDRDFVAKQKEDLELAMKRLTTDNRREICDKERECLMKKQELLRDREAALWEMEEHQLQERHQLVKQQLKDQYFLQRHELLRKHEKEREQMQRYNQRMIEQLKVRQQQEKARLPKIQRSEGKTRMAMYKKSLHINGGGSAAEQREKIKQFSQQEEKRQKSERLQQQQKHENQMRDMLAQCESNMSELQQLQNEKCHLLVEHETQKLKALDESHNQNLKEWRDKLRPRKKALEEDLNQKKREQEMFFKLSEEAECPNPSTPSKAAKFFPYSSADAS

On to `Cn1cc(-c2[nH]c3cc(NC(=O)[C@H](N)C4CCCCC4)cc4c3c2C=NNC4=O)cn1`, for which the Kd in test [1], in test [2], in test [3], in test [4] and in test [5] was > 30 µM (inactive) throughout.
Consider `FC(F)(F)c1ccc(CNc2ccc(Cc3c[nH]c4ncc(Cl)cc34)cn2)cn1` [PEXIDARTINIB], for which the Kd in test [1], in test [2], in test [3], in test [4] and in test [5] was > 30 µM (inactive) each time.
Consider `Cc1cc(C(=O)Nc2cc(Oc3ccc4nc(NC(=O)C5CC5)cn4n3)ccc2C)n(C)n1` [TAK-593], for which the Kd in test [1], in test [2], in test [3], in test [4] and in test [5] was > 30 µM (inactive) throughout.
On to `C=CCn1c(=O)c2cnc(Nc3ccc(N4CCN(C)CC4)cc3)nc2n1-c1cccc(C(C)(C)O)n1` [ADAVOSERTIB], for which the Kd in test [1], in test [2], in test [3], in test [4] and in test [5] was > 30 µM (inactive) each time.
As to `CCc1nc(C(N)=O)c(Nc2ccc(N3CCC(N4CCN(C)CC4)CC3)c(OC)c2)nc1NC1CCOCC1` [GILTERITINIB], the Kd (in general, a measure of binding affinity in units of concentration) in test [1] is > 30 µM (inactive); in test [2], 0.149 µM (active); in test [3], > 30 µM (inactive); in test [4], > 30 µM (inactive); in test [5] it was > 30 µM (inactive).
Consider `COc1cc2ncnc3c2cc1OCCCCCN(C)Cc1ccc(Br)cc1N3` [JNJ-26483327], for which the Kd was > 30 µM (inactive) in test [1]; 45.1 µM (active) in test [2]; > 30 µM (inactive) in test [3]; > 30 µM (inactive) in test [4]; > 30 µM (inactive) in test [5].
Regarding `C=CC(=O)Nc1cccc(Nc2nc(Nc3ccc(N4CCN(C(C)=O)CC4)cc3OC)ncc2C(F)(F)F)c1` [ROCILETINIB], the Kd in test [1], in test [2], in test [3], in test [4] and in test [5] was > 30 µM (inactive) in each case.
For `CCc1cc2c(cc1N1CCC(N3CCOCC3)CC1)C(C)(C)c1[nH]c3cc(C#N)ccc3c1C2=O` [ALECTINIB], the Kd in test [1], in test [2], in test [3], in test [4] and in test [5] was > 30 µM (inactive) in each case.
As to `Cc1cc(-c2cc(OC(=O)c3ccccc3)ccc2Cl)cc2nnc(Nc3ccc(OCCN4CCCC4)cc3)nc12` [TG100-801], the Kd in test [1], in test [2], in test [3], in test [4] and in test [5] was > 30 µM (inactive) throughout.
`COc1cc2nccc(Oc3ccc(NC(=O)C4(C(=O)Nc5ccc(F)cc5)CC4)cc3)c2cc1OC` [CABOZANTINIB]: the Kd in test [1], in test [2], in test [3], in test [4] and in test [5] was > 30 µM (inactive) each time.
As to `Cc1c(Cn2c(C)nc3c(C(=O)O)cc(N4CCOCC4)cc32)cccc1C(F)(F)F` [GSK-2636771], the Kd in test [1], in test [2], in test [3], in test [4] and in test [5] was > 30 µM (inactive) in each case.
As for `Cc1cc(Nc2nc(N[C@@H](C)c3ncc(F)cn3)ncc2Cl)n[nH]1` [AZD-1480], the Kd in test [1] is > 30 µM (inactive); in test [2], 0.728 µM (active); in test [3] it was > 30 µM (inactive); in test [4], 0.861 µM (active); in test [5], > 30 µM (inactive).
Take `Cc1ccc(C(=O)Nc2ccc(Oc3cc4cnn(C)c4cc3-c3cn[nH]c3)c(F)c2)c(=O)n1-c1ccc(F)cc1` [MERESTINIB]: the Kd in test [1], in test [2], in test [3], in test [4] and in test [5] was > 30 µM (inactive) in each case.
As to `CNC(=O)c1cc(COc2nnc(Nc3ccc(Cl)cc3)c3ccoc23)ccn1` [TELATINIB], the Kd in test [1], in test [2], in test [3], in test [4] and in test [5] was > 30 µM (inactive) each time.
As for `CNC(=O)c1cccc(-c2ccc3c(N4CCOC[C@@H]4C)nc(N4CCOC[C@@H]4C)nc3n2)c1` [VISTUSERTIB], the Kd in test [1], in test [2], in test [3], in test [4] and in test [5] was > 30 µM (inactive) throughout.
`O=C(NC[C@H](O)CO)c1ccncc1Nc1ccc(I)cc1F` [PIMASERTIB]: the Kd in test [1], in test [2], in test [3], in test [4] and in test [5] was > 30 µM (inactive) in each case.
As for `O=C(NOC[C@H](O)CO)c1ccc(F)c(F)c1Nc1ccc(I)cc1F` [MIRDAMETINIB], the Kd in test [1], in test [2], in test [3], in test [4] and in test [5] was > 30 µM (inactive) in each case.
As to `COc1ccc2c(OCc3nnc4ccc(-c5ccccc5)nn34)ccnc2c1` [AMG-208], the Kd in test [1], in test [2], in test [3], in test [4] and in test [5] was > 30 µM (inactive) throughout.
